According to ChEMBL document CHEMBL4507302, “Data for DCP probe TP-020” (2021):

Columns and labels:
[1] = system: Tyrosine-protein kinase ABL1 (Homo sapiens), P00519 [F317I]; details: Compound concentration 1000.0 nM
[2] = system: Tyrosine-protein kinase ABL1 (Homo sapiens), P00519 [T315I]; details: Compound concentration 1000.0 nM
[3] = molecular target: Tyrosine-protein kinase ABL2 (Homo sapiens) (UniProt P42684); details: Compound concentration 1000.0 nM
[4] = molecular target: Activin receptor type-1 (Homo sapiens) (UniProt Q04771); details: Compound concentration 1000.0 nM
[5] = molecular target: Activin receptor type-1-like (Homo sapiens) (UniProt P37023); details: Compound concentration 1000.0 nM
[6] = molecular target: Atypical kinase COQ8A, mitochondrial (Homo sapiens) (UniProt Q8NI60); details: Compound concentration 1000.0 nM
[7] = molecular target: Aurora kinase A (Homo sapiens) (UniProt O14965); details: Compound concentration 1000.0 nM
[8] = molecular target: Cytoplasmic tyrosine-protein kinase BMX (Homo sapiens) (UniProt P51813); details: Compound concentration 1000.0 nM
[9] = molecular target: Calcium/calmodulin-dependent protein kinase type II subunit delta (Homo sapiens) (UniProt Q13557); details: Compound concentration 1000.0 nM
Sequence of Calcium/calmodulin-dependent protein kinase type II subunit delta (Homo sapiens) (Q13557 whole entry): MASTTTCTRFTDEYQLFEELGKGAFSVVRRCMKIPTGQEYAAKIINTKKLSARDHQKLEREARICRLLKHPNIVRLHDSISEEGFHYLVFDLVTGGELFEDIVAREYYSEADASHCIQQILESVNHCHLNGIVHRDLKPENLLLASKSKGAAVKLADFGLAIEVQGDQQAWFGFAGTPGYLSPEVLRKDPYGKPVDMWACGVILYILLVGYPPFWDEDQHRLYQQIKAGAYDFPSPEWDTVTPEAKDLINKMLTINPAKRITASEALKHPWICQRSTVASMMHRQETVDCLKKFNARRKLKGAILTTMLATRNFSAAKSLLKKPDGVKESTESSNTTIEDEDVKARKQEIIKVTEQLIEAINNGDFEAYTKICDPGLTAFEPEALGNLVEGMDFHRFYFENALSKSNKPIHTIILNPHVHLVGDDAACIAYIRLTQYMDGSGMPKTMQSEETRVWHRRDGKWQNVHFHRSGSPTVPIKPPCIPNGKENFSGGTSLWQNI

[10] = molecular target: Calcium/calmodulin-dependent protein kinase kinase 2 (Homo sapiens) (UniProt Q96RR4); details: Compound concentration 1000.0 nM
[11] = molecular target: Peripheral plasma membrane protein CASK (Homo sapiens) (UniProt O14936); details: Compound concentration 1000.0 nM
[12] = molecular target: Cyclin-dependent kinase 11B (Homo sapiens) (UniProt P21127); details: Compound concentration 1000.0 nM
[13] = molecular target: Cyclin-dependent kinase 11A (Homo sapiens) (UniProt Q9UQ88); details: Compound concentration 1000.0 nM
[14] = molecular target: Cyclin-dependent kinase 4 (Homo sapiens) (UniProt P11802); details: Compound concentration 1000.0 nM
[15] = molecular target: Serine/threonine-protein kinase Chk2 (Homo sapiens) (UniProt O96017); details: Compound concentration 1000.0 nM
Sequence of Serine/threonine-protein kinase Chk2 (Homo sapiens) (O96017 whole entry, canonical isoform): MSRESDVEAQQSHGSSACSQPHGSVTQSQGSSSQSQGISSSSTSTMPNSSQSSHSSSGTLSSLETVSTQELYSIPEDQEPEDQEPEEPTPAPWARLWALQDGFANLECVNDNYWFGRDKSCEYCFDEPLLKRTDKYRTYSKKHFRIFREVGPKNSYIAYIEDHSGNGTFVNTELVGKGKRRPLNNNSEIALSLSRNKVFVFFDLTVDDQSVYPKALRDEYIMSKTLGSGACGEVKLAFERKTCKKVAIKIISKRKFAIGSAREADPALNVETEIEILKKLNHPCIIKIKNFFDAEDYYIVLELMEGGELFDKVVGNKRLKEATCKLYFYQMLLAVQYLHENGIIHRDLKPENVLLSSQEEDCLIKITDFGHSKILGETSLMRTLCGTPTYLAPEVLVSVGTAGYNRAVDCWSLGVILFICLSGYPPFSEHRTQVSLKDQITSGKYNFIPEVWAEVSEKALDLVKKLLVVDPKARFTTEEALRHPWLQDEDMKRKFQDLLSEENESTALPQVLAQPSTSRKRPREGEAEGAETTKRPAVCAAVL

[16] = molecular target: Casein kinase I isoform gamma-3 (Homo sapiens) (UniProt Q9Y6M4); details: Compound concentration 1000.0 nM
[17] = molecular target: Death-associated protein kinase 2 (Homo sapiens) (UniProt Q9UIK4); details: Compound concentration 1000.0 nM
[18] = molecular target: Serine/threonine-protein kinase DCLK2 (Homo sapiens) (UniProt Q8N568); details: Compound concentration 1000.0 nM
[19] = molecular target: Myotonin-protein kinase (Homo sapiens) (UniProt Q09013); details: Compound concentration 1000.0 nM
[20] = molecular target: Serine/threonine-protein kinase MRCK gamma (Homo sapiens) (UniProt Q6DT37); details: Compound concentration 1000.0 nM
[21] = system: Epidermal growth factor receptor (Homo sapiens), P00533 [G719S]; details: Compound concentration 1000.0 nM
[22] = molecular target: Ephrin type-B receptor 1 (Homo sapiens) (UniProt P54762); details: Compound concentration 1000.0 nM
[23] = molecular target: Mitogen-activated protein kinase 1 (Homo sapiens) (UniProt P28482); details: Compound concentration 1000.0 nM
[24] = molecular target: Mitogen-activated protein kinase 15 (Homo sapiens) (UniProt Q8TD08); details: Compound concentration 1000.0 nM
[25] = molecular target: Glycogen synthase kinase-3 beta (Homo sapiens) (UniProt P49841); details: Compound concentration 1000.0 nM
[26] = molecular target: Insulin-like growth factor 1 receptor (Homo sapiens) (UniProt P08069); details: Compound concentration 1000.0 nM
[27] = molecular target: Tyrosine-protein kinase ITK/TSK (Homo sapiens) (UniProt Q08881); details: Compound concentration 1000.0 nM
[28] = system: Mast/stem cell growth factor receptor Kit (Homo sapiens), P10721 [D816H]; details: Compound concentration 1000.0 nM
[29] = system: Mast/stem cell growth factor receptor Kit (Homo sapiens), P10721 [V559D,T670I]; details: Compound concentration 1000.0 nM
Sequence of Mast/stem cell growth factor receptor Kit (Homo sapiens), P10721 [V559D,T670I] (P10721 whole entry V559D/T670I): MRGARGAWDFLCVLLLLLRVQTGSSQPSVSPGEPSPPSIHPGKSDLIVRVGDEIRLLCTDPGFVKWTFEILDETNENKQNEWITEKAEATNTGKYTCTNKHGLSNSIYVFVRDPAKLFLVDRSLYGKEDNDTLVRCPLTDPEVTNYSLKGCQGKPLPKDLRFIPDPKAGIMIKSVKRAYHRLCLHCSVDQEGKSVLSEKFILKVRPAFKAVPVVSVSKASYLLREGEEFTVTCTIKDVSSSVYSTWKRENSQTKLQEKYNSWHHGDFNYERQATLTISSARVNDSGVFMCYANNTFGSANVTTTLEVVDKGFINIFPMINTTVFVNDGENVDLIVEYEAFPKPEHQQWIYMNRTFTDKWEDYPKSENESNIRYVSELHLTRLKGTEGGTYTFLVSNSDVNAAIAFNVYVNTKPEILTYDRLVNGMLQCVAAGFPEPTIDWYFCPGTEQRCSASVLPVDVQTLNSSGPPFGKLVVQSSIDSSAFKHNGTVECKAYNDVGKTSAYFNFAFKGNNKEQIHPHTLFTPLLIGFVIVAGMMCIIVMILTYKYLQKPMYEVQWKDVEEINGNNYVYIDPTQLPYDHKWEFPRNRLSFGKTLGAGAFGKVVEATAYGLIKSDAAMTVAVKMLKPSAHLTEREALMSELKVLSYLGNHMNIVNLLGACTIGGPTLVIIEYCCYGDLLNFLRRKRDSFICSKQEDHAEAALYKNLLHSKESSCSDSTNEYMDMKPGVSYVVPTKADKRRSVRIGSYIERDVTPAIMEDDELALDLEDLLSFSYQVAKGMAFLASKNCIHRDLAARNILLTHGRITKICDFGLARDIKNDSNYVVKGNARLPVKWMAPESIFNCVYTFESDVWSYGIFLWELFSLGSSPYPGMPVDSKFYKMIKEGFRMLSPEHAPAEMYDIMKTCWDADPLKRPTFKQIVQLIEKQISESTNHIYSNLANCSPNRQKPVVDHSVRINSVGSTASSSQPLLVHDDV

[30] = molecular target: Mitogen-activated protein kinase kinase kinase kinase 3 (Homo sapiens) (UniProt Q8IVH8); details: Compound concentration 1000.0 nM
[31] = molecular target: Microtubule-associated serine/threonine-protein kinase 1 (Homo sapiens) (UniProt Q9Y2H9); details: Compound concentration 1000.0 nM
[32] = molecular target: Maternal embryonic leucine zipper kinase (Homo sapiens) (UniProt Q14680); details: Compound concentration 1000.0 nM
[33] = molecular target: Myosin-IIIa (Homo sapiens) (UniProt Q8NEV4); details: Compound concentration 1000.0 nM
Sequence of Myosin-IIIa (Homo sapiens) (Q8NEV4 whole entry): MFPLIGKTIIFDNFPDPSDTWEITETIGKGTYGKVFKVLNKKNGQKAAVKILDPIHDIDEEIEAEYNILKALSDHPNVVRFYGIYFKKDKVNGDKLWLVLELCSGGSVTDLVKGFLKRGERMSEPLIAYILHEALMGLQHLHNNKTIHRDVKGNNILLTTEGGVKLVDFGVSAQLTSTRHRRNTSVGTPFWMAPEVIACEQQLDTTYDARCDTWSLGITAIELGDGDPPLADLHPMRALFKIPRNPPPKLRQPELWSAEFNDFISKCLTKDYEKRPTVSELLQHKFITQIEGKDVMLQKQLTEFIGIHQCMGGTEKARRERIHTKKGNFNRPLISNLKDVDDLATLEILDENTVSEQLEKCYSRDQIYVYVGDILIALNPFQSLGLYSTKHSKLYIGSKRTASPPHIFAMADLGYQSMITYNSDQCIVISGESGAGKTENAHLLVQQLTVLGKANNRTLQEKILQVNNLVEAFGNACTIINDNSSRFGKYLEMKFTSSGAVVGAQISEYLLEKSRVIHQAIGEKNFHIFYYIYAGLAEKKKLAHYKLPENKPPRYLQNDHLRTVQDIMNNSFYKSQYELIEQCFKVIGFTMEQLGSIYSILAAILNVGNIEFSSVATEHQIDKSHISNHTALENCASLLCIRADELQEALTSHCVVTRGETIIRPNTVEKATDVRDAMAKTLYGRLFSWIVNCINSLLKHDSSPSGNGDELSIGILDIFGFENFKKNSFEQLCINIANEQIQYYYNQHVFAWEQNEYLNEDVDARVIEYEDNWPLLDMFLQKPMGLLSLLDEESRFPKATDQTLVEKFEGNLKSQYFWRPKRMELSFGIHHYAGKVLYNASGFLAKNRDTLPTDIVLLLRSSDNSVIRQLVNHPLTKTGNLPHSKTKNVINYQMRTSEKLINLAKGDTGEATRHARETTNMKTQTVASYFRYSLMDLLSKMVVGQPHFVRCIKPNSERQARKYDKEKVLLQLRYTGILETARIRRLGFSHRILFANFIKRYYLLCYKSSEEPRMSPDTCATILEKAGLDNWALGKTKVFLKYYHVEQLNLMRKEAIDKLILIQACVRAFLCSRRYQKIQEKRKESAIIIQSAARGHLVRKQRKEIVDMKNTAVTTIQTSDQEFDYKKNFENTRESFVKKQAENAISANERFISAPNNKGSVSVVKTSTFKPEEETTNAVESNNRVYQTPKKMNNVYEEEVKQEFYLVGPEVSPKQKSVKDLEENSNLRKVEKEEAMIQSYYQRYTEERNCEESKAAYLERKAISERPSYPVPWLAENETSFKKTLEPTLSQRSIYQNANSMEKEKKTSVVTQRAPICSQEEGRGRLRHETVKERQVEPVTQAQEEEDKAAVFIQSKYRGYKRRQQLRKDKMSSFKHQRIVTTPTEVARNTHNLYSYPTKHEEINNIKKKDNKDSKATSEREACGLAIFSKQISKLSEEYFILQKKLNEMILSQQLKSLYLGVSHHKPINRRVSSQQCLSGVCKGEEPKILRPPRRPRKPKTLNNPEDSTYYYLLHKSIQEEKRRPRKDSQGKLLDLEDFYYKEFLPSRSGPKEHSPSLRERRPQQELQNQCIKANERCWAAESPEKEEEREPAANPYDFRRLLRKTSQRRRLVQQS

[34] = molecular target: Serine/threonine-protein kinase Nek7 (Homo sapiens) (UniProt Q8TDX7); details: Compound concentration 1000.0 nM
[35] = system: Phosphatidylinositol 4,5-bisphosphate 3-kinase catalytic subunit alpha isoform (Homo sapiens), P42336 [E545A]; details: Compound concentration 1000.0 nM
Sequence of Phosphatidylinositol 4,5-bisphosphate 3-kinase catalytic subunit alpha isoform (Homo sapiens), P42336 [E545A] (P42336 whole entry E545A, canonical isoform): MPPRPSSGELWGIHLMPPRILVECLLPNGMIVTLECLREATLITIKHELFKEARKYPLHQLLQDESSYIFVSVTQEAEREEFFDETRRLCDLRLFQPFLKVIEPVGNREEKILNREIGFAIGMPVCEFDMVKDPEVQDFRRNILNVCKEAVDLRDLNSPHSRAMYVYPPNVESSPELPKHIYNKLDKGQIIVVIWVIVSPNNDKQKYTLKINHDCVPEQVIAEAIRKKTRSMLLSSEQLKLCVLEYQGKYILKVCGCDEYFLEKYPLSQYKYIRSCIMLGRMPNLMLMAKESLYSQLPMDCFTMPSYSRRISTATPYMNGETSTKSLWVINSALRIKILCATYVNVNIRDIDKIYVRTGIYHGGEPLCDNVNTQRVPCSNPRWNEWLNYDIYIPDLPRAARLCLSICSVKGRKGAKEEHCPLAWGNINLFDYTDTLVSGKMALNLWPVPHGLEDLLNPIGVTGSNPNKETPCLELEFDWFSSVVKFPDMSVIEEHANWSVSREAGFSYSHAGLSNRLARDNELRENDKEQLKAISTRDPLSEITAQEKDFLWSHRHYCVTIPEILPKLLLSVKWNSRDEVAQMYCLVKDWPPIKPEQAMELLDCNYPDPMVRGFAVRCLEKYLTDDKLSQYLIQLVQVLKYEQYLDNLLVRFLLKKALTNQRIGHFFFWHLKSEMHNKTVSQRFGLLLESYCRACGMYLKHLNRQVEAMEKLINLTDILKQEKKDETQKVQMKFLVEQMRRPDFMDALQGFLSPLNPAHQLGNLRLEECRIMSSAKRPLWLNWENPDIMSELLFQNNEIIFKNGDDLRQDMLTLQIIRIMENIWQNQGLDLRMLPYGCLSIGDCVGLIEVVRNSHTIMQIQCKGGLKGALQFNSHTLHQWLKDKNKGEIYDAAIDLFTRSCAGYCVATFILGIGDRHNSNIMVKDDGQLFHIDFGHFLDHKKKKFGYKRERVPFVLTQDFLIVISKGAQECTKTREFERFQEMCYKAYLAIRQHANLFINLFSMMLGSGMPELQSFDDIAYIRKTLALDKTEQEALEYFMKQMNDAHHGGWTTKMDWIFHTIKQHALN

[36] = system: Phosphatidylinositol 4,5-bisphosphate 3-kinase catalytic subunit alpha isoform (Homo sapiens), P42336 [H1047Y]; details: Compound concentration 1000.0 nM
[37] = molecular target: Serine/threonine-protein kinase SIK3 (Homo sapiens) (UniProt Q9Y2K2); details: Compound concentration 1000.0 nM
[38] = molecular target: Receptor-interacting serine/threonine-protein kinase 2 (Homo sapiens) (UniProt O43353); details: Compound concentration 1000.0 nM
[39] = molecular target: Serine/threonine-protein kinase 36 (Homo sapiens) (UniProt Q9NRP7); details: Compound concentration 1000.0 nM
[40] = molecular target: Tyrosine-protein kinase SYK (Homo sapiens) (UniProt P43405); details: Compound concentration 1000.0 nM
[41] = molecular target: Vascular endothelial growth factor receptor 2 (Homo sapiens) (UniProt P35968); details: Compound concentration 1000.0 nM
[42] = molecular target: 5-hydroxytryptamine receptor 1D (Homo sapiens, UniProt P28221); details: Compound concentration 10.0 uM
Sequence of 5-hydroxytryptamine receptor 1D (P28221 whole entry): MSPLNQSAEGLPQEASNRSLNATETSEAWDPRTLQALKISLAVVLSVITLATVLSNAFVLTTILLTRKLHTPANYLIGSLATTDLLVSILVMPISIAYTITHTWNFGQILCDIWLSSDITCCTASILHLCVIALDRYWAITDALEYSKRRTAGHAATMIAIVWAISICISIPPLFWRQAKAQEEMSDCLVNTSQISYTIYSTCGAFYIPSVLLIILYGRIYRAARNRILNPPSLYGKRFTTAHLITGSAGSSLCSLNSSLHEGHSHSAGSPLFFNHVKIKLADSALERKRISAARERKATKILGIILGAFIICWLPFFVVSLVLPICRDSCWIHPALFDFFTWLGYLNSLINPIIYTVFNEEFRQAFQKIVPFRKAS

[43] = molecular target: 5-hydroxytryptamine receptor 1E (Homo sapiens) (UniProt P28566); details: Compound concentration 10.0 uM
[44] = molecular target: 5-hydroxytryptamine receptor 7 (Homo sapiens) (UniProt P34969); details: Compound concentration 10.0 uM
[45] = molecular target: Histamine H3 receptor (Homo sapiens) (UniProt Q9Y5N1); details: Compound concentration 10.0 uM

Structure (SMILES): Cn1nc(C(F)(F)F)cc1-c1cnc(N2CCc3cc(S(=O)(=O)Nc4c(F)cc(Cl)cc4F)cc(N4CCCC4=O)c32)nc1 [TP-020]
- residual activity [1]: 85%
- residual activity [2]: 74%
- residual activity [3]: 100%
- residual activity [4]: 85%
- residual activity [5]: 87%
- residual activity [6]: 100%
- residual activity [7]: 88%
- residual activity [8]: 81%
- residual activity [9]: 99%
- residual activity [10]: 93%
- residual activity [11]: 77%
- residual activity [12]: 100%
- residual activity [13]: 100%
- residual activity [14]: 82%
- residual activity [15]: 100%
- residual activity [16]: 81%
- residual activity [17]: 94%
- residual activity [18]: 100%
- residual activity [19]: 82%
- residual activity [20]: 100%
- residual activity [21]: 100%
- residual activity [22]: 100%
- residual activity [23]: 100%
- residual activity [24]: 78%
- residual activity [25]: 100%
- residual activity [26]: 94%
- residual activity [27]: 97%
- residual activity [28]: 77%
- residual activity [29]: 88%
- residual activity [30]: 84%
- residual activity [31]: 100%
- residual activity [32]: 100%
- residual activity [33]: 100%
- residual activity [34]: 100%
- residual activity [35]: 84%
- residual activity [36]: 76%
- residual activity [37]: 94%
- residual activity [38]: 82%
- residual activity [39]: 100%
- residual activity [40]: 100%
- residual activity [41]: 87%
- inhibition [42]: 55.3%
- inhibition [43]: 14.8%
- inhibition [44]: 4.51%
- inhibition [45]: 0.43%

Structure (SMILES): Nc1cnc(N2CCc3cc(S(=O)(=O)Nc4c(F)cc(Cl)cc4F)cc(N4CCCC4=O)c32)nc1
- residual activity [1]: 100%
- residual activity [2]: 100%
- residual activity [3]: 95%
- residual activity [4]: 100%
- residual activity [5]: 86%
- residual activity [6]: 100%
- residual activity [7]: 100%
- residual activity [8]: 100%
- residual activity [9]: 100%
- residual activity [10]: 100%
- residual activity [11]: 94%
- residual activity [12]: 100%
- residual activity [13]: 89%
- residual activity [14]: 86%
- residual activity [15]: 92%
- residual activity [16]: 78%
- residual activity [17]: 91%
- residual activity [18]: 100%
- residual activity [19]: 100%
- residual activity [20]: 100%
- residual activity [21]: 75%
- residual activity [22]: 92%
- residual activity [23]: 100%
- residual activity [24]: 84%
- residual activity [25]: 100%
- residual activity [26]: 90%
- residual activity [27]: 100%
- residual activity [28]: 100%
- residual activity [29]: 100%
- residual activity [30]: 93%
- residual activity [31]: 97%
- residual activity [32]: 90%
- residual activity [33]: 77%
- residual activity [34]: 96%
- residual activity [35]: 100%
- residual activity [36]: 100%
- residual activity [37]: 83%
- residual activity [38]: 53%
- residual activity [39]: 98%
- residual activity [40]: 100%
- residual activity [41]: 81%
- inhibition [42]: 9.24%
- inhibition [43]: -4.55%
- inhibition [44]: 0.94%
- inhibition [45]: -1.21%
